# Source: patent publication US5750754A, “Heterocyclic compounds” (Zeneca Limited, priority 1993, dated 1998)
# What was measured:
# αv β3 = αv β3 (Homo sapiens, UniProt P05106+P06756); assay: Binding of αv β3 to vitronectin; conditions: read-out: pIC50, binding of αv β3 to vitronectin (converted)
# αv β1 = assay: Binding of αv β1 to fibronectin
# [1] = test system: Alderley Park Wistar rats; assay: Repeated oral dose study in the rat (liver effects, tolerability); assay type: in vivo
# Procedure: The following is a description of a study of the effects of the (-)-(3R) compound of Example 246 and the corresponding (3RS)-racemic mixture of Example 203 in the rat. Four groups of ten Alderley Park Wistar rats (each group comprising 5 male and 5 female rats) were dose orally with the (3RS)-racemic mixture of Example 203 at daily doses of 0, 25, 100 or 500 mg/kg. Dosing was continued for a total of seven days. The animals were killed and examined.
# Four groups of ten Alderley Park Wistar rats (each group comprising 5 male and 5 female rats) were dosed orally with the (-)-(3R) compound of Example 246 at daily doses of 0, 50, 250 and 1000 mg/kg. The highest dose was not tolerated. After four or five days, four of the animals from this group were killed. The remaining six animals were dosed at 500 mg/kg/day for the remainder of the study. Dosing was continued for a total of fourteen days. The animals were killed and examined.
# [2] = biological target: T1, human, citrated, platelet-rich plasma (Homo sapiens, UniProt P05106+P08514); assay: Test (a): inhibition of ADP stimulated platelet aggregation (Born); assay type: cell-based; conditions: ADP induced aggregation of human platelet-rich plasma; read-out: Test (a): pA2 value indicating potency of platelet aggregation inhibition (converted)
# T1 construct: aggregating human, citrated, platelet-rich plasma; endogenous in cells; host or cells: human platelets in citrated platelet-rich plasma
# T1 sequence (P08514 32-887 limits assumed): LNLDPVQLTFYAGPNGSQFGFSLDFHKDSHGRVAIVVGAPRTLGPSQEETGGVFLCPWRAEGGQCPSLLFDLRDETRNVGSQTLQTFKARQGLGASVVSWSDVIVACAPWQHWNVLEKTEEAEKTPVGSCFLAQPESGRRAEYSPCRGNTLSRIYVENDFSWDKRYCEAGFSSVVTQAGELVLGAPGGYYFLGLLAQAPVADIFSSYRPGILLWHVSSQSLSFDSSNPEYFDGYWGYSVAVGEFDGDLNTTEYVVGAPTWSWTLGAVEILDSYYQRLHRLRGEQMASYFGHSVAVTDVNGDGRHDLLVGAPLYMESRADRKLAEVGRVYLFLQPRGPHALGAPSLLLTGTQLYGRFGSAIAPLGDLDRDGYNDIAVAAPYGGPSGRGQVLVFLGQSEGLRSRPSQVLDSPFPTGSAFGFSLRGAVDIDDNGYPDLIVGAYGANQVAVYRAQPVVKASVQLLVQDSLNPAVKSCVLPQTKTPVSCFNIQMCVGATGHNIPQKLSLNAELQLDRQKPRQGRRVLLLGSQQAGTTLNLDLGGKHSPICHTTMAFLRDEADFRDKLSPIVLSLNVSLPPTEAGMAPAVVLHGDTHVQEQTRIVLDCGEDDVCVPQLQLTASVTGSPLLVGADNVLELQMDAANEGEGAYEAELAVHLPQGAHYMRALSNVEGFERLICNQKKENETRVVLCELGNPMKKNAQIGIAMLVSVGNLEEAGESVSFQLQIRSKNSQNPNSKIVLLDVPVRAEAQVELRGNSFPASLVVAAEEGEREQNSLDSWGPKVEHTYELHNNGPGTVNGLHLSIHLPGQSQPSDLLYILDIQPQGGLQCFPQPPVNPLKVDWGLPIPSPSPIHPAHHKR
# T1 sequence (P08514 891-1039 limits assumed): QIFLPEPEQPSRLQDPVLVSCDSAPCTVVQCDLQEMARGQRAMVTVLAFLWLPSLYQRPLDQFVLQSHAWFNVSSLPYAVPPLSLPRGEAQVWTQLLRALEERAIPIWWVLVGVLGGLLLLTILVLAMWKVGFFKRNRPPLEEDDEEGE
# T1 sequence (P05106 27-788): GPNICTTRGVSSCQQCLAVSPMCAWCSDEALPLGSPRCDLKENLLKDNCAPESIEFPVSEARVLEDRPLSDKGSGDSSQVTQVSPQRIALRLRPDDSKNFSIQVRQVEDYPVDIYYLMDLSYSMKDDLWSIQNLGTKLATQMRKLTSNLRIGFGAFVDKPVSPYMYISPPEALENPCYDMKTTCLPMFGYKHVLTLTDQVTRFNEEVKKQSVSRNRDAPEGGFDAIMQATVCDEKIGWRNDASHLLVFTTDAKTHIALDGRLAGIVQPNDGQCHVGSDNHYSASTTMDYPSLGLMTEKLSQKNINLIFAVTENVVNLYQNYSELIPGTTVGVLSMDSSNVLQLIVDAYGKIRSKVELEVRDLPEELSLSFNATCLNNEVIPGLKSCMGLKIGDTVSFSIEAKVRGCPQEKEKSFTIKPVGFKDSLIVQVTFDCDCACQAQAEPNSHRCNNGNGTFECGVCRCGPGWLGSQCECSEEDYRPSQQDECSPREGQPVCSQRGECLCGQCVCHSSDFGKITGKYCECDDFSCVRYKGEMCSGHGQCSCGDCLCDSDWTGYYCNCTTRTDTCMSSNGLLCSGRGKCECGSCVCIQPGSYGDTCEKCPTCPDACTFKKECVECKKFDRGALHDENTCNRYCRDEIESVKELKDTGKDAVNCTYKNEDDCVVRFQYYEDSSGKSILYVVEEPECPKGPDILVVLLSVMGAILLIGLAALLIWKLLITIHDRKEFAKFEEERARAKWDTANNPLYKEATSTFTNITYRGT
# Procedure, shortened: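 ADP added to human citrated platelet-rich plasma to build aggregation dose-response curves, repeated with increasing test compound (generally 10-^5 M to 10-^10 M). pA2 derived from the 50% response value for ADP with vs. without compound, averaged over several concentrations.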
# [3] = biological target: T2, purified human platelet fibrinogen receptor (GPIIb/IIIa) (Homo sapiens, UniProt P05106+P08514); assay: Test (b): GPIIb/IIIa ELISA, inhibition of biotinylated fibrinogen binding
# T2 construct: is isolated from human platelet lysates; from tissue
# T2 sequence (P08514 32-887 limits assumed): as the sequence (P08514 32-887 limits assumed) above
# T2 sequence (P08514 891-1039 limits assumed): as the sequence (P08514 891-1039 limits assumed) above
# T2 sequence (P05106 27-788): as the sequence (P05106 27-788) above
# Procedure, shortened: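 GPIIb/IIIa affinity-purified from human platelet lysates was coated on plates, blocked, then incubated 2 h at 30 °C with biotinylated fibrinogen ([…]) plus compound. Bound fibrinogen detected via streptavidin/biotinylated HRP and TMB, OD at 650 nm; pIC50 for 50% binding inhibition.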
# αv β3, sequence (P06756 31-889 limits assumed): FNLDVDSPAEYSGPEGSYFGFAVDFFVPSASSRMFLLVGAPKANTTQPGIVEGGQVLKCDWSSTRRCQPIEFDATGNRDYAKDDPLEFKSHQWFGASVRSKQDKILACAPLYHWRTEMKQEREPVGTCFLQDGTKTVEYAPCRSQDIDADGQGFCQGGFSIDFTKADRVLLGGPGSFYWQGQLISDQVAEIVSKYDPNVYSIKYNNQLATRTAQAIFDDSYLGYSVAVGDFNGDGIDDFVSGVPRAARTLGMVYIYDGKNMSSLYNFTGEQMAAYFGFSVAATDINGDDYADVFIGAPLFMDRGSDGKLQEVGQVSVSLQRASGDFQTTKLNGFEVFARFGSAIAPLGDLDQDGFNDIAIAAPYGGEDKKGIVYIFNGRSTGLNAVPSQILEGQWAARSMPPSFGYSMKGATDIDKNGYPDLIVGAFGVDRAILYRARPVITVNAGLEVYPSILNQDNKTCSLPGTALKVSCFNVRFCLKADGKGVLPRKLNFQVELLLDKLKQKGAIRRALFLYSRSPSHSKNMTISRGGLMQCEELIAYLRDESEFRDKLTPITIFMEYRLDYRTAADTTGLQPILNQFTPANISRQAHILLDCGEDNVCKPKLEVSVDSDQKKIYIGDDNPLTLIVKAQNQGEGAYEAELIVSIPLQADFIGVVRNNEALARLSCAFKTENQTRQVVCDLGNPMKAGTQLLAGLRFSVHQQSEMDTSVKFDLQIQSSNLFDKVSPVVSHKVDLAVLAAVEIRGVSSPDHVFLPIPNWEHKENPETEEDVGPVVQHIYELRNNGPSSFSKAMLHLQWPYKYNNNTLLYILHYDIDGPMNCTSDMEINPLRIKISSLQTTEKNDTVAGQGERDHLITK
# αv β3, sequence (P06756 891-1048 limits assumed): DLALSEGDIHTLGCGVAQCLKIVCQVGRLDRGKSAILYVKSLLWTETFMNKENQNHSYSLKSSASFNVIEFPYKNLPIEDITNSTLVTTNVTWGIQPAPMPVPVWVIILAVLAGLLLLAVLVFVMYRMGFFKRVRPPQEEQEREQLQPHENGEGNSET
# αv β3, sequence (P05106 27-788): as the sequence (P05106 27-788) above
smiles,measurement,setting,value
"C[C@@H](COc1ccc(N2CCN(c3ccncc3)CC2)cc1)CC(=O)O.Cl [Example 246, (-)-(3R)-3-Methyl-4-{4-[4-(4-pyridyl)piperazin-1-yl]phenoxy}butyric acid hydrochloride]",IC50,αv β3,> 100000 nM
same,"pIC50, binding of αv β1 to fibronectin",αv β1,less than 4
same,toxicity relative to the (3RS)-racemic mixture (by implication),[1]; rat oral studies compared,less toxic than the (3RS)-racemic mixture of Example 203
same,adverse effect on the rat liver (conclusion),"[1]; rat, 500 mg/kg/day",no significant adverse effect on the rat liver
same,adverse effects in the liver,"[1]; rat, oral, 250 mg/kg/day, fourteen days",No adverse effects were noted in the livers
same,tolerability of the highest dose,"[1]; rat, oral, 1000 mg/kg daily",not tolerated
same,adverse effect on the liver,"[1]; rat, oral, 1000 mg/kg/day for three or four days then 500 mg/kg/day for ten or eleven days",no adverse effect on the liver
same,Kb,[2],50.1 nM
same,IC50,"[3]; purified human platelet GPIIb/IIIa, ELISA, read-out: Test (b): pIC50 (-log(IC50)), 50% inhibition of biotinylated fibrinogen binding to GPIIb/IIIa (converted)",22.4 nM
same,potency as a GPIIb/IIIa antagonist relative to the corresponding (+)-(3S) isomer,[3]; versus (+)-(3S) isomer,greater than 10 fold
